Earlier results on eight molecules are cited in patent publication US20050255458A1, “Drug discovery assays based on the biology of chronic disease” (priority 2002, published 2005).

Where two headings read alike, the source gives them in different places.

Data set [1] relates to NF-κB. Particulars: cited from earlier work.
The next data set relates to DC. As to conditions: inhaled; cited from earlier work.
Data set [2] has as its system ‘Langerhans’ cells in nasal mucosa. As to conditions: topical; cited from earlier work.
The next data set concerns c-Rel/p65. As to conditions: cited from earlier work.
Data set [3] deals with TF. As to conditions: cited from earlier work.
For data set [4], the system named is TF. As to conditions: 0.5 mg/kg/day, cited from earlier work.
In data set [5] the test system is TF. As to conditions: cited from earlier work. This is another data set of the same source.
The subject of data set [6] is leukocytes. Particulars: low concentrations, 20 hours; cited from earlier work.
The next data set has as its system human lymphocytes. As to conditions: 0.1 and 1 mM; cited from earlier work.
Data set [7] concerns leukocytes. As to conditions: 5-20 mg/kg/day, oral; cited from earlier work.
The subject of a further data set is LDLR(−/−) mice. Particulars: ≈5 mg/kg/day, 18 weeks; cited from earlier work.
The test system of data set [8] is Moloney murine leukemia virus (MMuLV). As to conditions: cited from earlier work.
The subject of a further data set is Rous sarcoma virus (RSV). Particulars: cited from earlier work.
Another data set concerns TF antigen. Particulars: cited from earlier work.
Data set [9] addresses T1, ACE (Mus musculus, UniProt P09470).
T1 sequence (P09470 35-1312): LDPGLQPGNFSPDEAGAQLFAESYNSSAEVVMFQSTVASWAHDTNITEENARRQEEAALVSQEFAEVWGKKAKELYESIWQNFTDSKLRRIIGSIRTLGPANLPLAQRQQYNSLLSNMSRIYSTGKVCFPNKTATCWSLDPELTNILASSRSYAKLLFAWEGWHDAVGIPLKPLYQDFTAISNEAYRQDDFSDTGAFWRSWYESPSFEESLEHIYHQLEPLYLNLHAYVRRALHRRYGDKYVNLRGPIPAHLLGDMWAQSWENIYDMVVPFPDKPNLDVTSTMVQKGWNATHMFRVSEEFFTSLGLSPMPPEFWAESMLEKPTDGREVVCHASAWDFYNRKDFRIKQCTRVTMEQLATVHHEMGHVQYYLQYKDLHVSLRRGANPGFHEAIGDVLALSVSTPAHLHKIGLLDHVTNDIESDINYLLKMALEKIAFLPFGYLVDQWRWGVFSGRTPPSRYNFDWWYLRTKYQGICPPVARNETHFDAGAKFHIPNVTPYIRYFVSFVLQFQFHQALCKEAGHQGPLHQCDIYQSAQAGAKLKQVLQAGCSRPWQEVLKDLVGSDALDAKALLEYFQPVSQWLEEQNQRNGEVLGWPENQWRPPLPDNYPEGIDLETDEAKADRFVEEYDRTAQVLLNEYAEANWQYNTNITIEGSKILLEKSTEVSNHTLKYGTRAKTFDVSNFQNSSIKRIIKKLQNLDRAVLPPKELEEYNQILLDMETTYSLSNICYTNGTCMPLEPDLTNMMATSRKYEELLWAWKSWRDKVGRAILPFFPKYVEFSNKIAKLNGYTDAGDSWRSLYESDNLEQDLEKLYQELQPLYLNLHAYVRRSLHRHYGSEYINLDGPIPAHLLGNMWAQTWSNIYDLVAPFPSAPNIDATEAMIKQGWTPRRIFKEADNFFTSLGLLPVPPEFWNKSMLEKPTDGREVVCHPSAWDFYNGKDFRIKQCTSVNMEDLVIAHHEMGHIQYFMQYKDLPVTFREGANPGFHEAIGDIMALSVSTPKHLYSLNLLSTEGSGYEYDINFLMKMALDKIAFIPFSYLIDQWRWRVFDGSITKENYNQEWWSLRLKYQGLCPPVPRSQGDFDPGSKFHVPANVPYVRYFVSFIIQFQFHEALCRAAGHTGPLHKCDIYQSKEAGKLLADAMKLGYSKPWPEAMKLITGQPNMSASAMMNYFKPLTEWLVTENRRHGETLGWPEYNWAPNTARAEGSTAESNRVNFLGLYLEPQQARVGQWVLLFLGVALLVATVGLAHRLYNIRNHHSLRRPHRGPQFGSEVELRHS
As to conditions: zofenopril 0.05 or 1, captopril 5, enalapril 0.5 mg/kg/day; 29 weeks; cited from earlier work.

Data set [10] concerns the target T2, ACE (Homo sapiens, UniProt P12821). More on the design: randomly assigned 9,297 high-risk patients; from tissue; host or cells: patients, in vivo. As to conditions: 5 mg/day, vs placebo; cited from earlier work.
Data set [11] relates to NF-κB. As to conditions: rabbit, in vivo; cited from earlier work.
Data set [12] relates to apoE(−/−) mice. As to conditions: ramipril 1 mg/kg/day, 10 weeks; cited from earlier work.
Data set [13] has as its target T2, ACE. On the set-up: from tissue; host or cells: patients, in vivo. As to conditions: 5 or 10 mg/day, 4 years, vs placebo; cited from earlier work.
Data set [14] has as its target T2, ACE. More on the design: randomly assigned 9,297 high-risk patients; from tissue; host or cells: patients, in vivo. Particulars: cited from earlier work.
The target in data set [15] is T2, ACE. More on the design: randomly assigned 9,297 high-risk patients; from tissue; host or cells: patients, in vivo. Particulars: cited from earlier work. This is another data set of the same source.
The subject of a further data set is TF mRNA. As to conditions: obese mice, 10 to 20 weeks of age; cited from earlier work.
In data set [16] the test system is NF-κB. As to conditions: cited from earlier work. The source holds these as a separate data set.
The subject of data set [17] is TF. Particulars: in vitro treatment; cited from earlier work.
Another data set has as its system neutrophils. Particulars: cited from earlier work.
Data set [18] relates to apoE(−/−) mice. As to conditions: 500 or 1,000 ng/min/kg, 1 month; cited from earlier work.
The test system of data set [19] is apolipoprotein E deficient mice. Particulars: 0.1 ml of 10^−7M per mouse, intraperitoneally, once a day for 30 days; cited from earlier work.

T2 sequence (P12821 30-1306): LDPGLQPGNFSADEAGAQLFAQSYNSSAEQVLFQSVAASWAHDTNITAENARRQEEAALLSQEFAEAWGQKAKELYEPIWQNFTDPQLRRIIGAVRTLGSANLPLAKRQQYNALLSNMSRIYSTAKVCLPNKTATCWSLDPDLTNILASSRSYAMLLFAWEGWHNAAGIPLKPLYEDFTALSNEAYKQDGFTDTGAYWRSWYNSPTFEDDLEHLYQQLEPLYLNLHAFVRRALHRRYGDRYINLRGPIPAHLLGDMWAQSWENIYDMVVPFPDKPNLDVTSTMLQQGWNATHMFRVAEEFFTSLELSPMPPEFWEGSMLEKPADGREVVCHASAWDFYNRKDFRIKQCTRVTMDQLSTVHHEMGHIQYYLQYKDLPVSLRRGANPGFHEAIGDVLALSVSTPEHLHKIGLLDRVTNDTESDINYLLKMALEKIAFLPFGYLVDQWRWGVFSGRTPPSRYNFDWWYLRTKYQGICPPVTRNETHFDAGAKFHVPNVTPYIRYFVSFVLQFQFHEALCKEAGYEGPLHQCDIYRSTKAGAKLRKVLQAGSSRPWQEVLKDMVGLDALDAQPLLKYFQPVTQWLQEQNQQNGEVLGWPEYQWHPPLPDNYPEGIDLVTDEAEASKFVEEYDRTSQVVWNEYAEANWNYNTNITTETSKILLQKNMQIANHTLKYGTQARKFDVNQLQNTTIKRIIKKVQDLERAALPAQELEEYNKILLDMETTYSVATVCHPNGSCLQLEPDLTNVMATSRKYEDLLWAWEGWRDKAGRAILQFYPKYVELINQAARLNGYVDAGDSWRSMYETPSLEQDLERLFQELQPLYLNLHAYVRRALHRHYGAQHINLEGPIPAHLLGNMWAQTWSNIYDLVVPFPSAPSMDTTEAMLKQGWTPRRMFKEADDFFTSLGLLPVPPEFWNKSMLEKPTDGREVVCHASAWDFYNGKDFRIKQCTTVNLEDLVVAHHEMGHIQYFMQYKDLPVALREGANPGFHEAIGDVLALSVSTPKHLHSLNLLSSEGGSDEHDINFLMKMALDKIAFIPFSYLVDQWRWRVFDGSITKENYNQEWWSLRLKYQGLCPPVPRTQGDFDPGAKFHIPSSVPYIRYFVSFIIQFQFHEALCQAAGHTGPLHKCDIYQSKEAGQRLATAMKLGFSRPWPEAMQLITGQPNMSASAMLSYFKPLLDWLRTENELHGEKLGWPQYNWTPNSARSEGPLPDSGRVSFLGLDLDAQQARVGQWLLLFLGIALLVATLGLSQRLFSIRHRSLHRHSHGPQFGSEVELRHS

Regarding `CCC(=O)O[C@]1(C(=O)SCF)[C@H](C)C[C@H]2[C@@H]3C[C@H](F)C4=CC(=O)C=C[C@]4(C)[C@@]3(F)[C@@H](O)C[C@@]21C` [FP, Fluticasone propionate], the NF-κB activation entry in the data set with NF-κB [1] was “decreases NF-κB activation”. Besides, the “number of DC in asthma” value in the data set on DC is recorded as “decreased the number of DC in asthma”. Moreover, the “number of antigen-presenting ‘Langerhans’ cells in nasal mucosa” value in [2] is reported as “decreased the number of the antigen-presenting ‘Langerhans’ cells”.
With `CC(=O)Oc1ccccc1C(=O)O` [aspirin, Acetylsalicylic Acid], the “LPS-induced translocation of c-Rel/p65” value in the data set with c-Rel/p65 is “inhibited the LPS-induced translocation of c-Rel/p65”. Also, the “LPS-induced increase in TF mRNA and protein level” value in the data set with TF [3] was “dose-dependently inhibited”. Also, the “increase in TF concentration compared to non-smoker mice (Western blotting)” value in the data set with TF [4] is 1.3±0.17 fold. Further, the TF immunoreactive area with TF [4] (smoker mice, 8 weeks) is given as 6.5±4.5%. In addition, the “TF staining area in plaque” value with TF [5] (non-smokers) is 2.0±2%. The “TF staining area in plaque” value in the data set with TF [5] (smokers) is listed as 4.4±4%. For the same molecule, in the data set on leukocytes [6], the cell migration result is “increased cell migration”. The “migration of human lymphocytes” value in the data set with human lymphocytes was “stimulated migration of human lymphocytes”. For the same molecule, the “increase of leukocyte migration relative to control values” in the data set with leukocytes [7] is given as 20-70%. Besides, in the data set on LDLR(−/−) mice, the “decrease in NF-κB binding activity in the aortas” value is 34%, the “decrease in the positive area for macrophages” value is reported as 57% and the “increase in the positive area for SMC” value is 77%.
Consider `C/C=C/C/C=C/CCC(=O)[C@H]1O[C@H]1C(N)=O` [cerulenin], for which the virus production entry in data set [8] was “drastically decreased”; in the data set on Rous sarcoma virus (RSV) it was “inhibited”.
With `CCOC(=O)[C@H](CCc1ccccc1)N[C@@H](C)C(=O)N1CCC[C@H]1C(=O)O` [enalapril], the “plasma TF antigen level” value was 205±14 with TF antigen (day 3) and 169±13 in the data set with TF antigen (day 28). At ACE [9], the “total lesion area compared to placebo” value is given as “no significant decrease in lesion area”. At ACE [10], the “changes in mean absolute diameter, minimum absolute diameter, and percent diameter stenosis” value is reported as “no significant difference”.
`CCOC(=O)[C@H](CCc1ccccc1)N[C@@H](C)C(=O)N1Cc2ccccc2C[C@H]1C(=O)O` [quinapril]: the “NF-κB activity in atherosclerotic vessels” value with NF-κB [11] is on record as “decreased the NF-κB activity”.
In the case of `CCOC(=O)[C@H](CCc1ccccc1)N[C@@H](C)C(=O)N1[C@H](C(=O)O)C[C@@H]2CCC[C@@H]21` [ramipril], in the data set with apoE(−/−) mice [12], the lesion area is on record as 6,679±978 μm^2. Also, the “changes in thickness of the common carotid artery wall, or carotid plaque height” value on ACE [13] was “no significant difference”. Further, the “rate of death from cardiovascular causes” value at ACE [14] (10 mg/day, average follow up 4.5 years) is 6.1%. Further, on ACE [14] (10 mg/day), the “rate of cardiac arrest” value is reported as 0.8%, the “rate of complications related to diabetes” value was 6.4%, the “rate of death from any cause” value is on record as 10.4% and the “rate of heart failure” value is 9.1%. At ACE [14] (10 mg/day), the “rate of myocardial infarction” value is 9.9%, the “rate of revascularization procedures” value is listed as 16.3% and the rate of stroke was 3.4%. For the same molecule, at ACE [14] (vs placebo), the “RR of cardiac arrest” value is on record as 0.62, the “RR of complications related to diabetes” value is on record as 0.84, the “RR of death from any cause” value was 0.84 and the “RR of death from cardiovascular causes” value is on record as 0.74. On ACE [14] (vs placebo), the “RR of heart failure” value is recorded as 0.77, the “RR of myocardial infarction” value was 0.80, the “RR of revascularization procedures” value is 0.85 and the RR of stroke is given as 0.68. The “progression slope of the mean maximum carotid intimal medial thickness (IMT)” value at ACE [15] (10 mg/day, 4.5 years) was 0.0137±0.0024 mm/year. Also, on ACE [15] (at 4.5 years), the “decrease of progression of carotid intima media thickness” value is given as 0.008 mm per year.
Turning to `CCOC(=O)[C@H](CCc1ccccc1)N[C@H]1CS[C@H](c2cccs2)CN(CC(=O)O)C1=O` [temocapril], the “TF mRNA in cardiac tissue” value in the data set on TF mRNA is reported as “attenuated the increase in TF mRNA”.
With “angiotensin II (DRVYIHPF; Angiotensin-2; UniProt P01019 25-32, looked up)”, in the data set on NF-κB [16], the NF-κB activation entry is “increased NF-κB activation”. Further, the “TF antigen and mRNA” value in the data set with TF [17] was “dose-depended increase in TF antigen and mRNA”. Besides, the velocity with neutrophils (concentration of 10^−11) is listed as 88 % of maximum velocity. Further, in the data set on neutrophils (neutrophils), the “concentration of peak velocity” value was 10^−10. In the data set on apoE(−/−) mice [18], the “development of AAA” value is “promotes the development of AAA” and the “rate of atherosclerotic lesion formation in the thoracic aorta” value is on record as “increases the rate of atherosclerotic lesion formation”. In addition, the lesion area in [19] is 5,000 μm^2.
